Like-named read-outs stand apart in the source and are kept apart here.

The values that follow come from PMC10229614 (Scientific Reports, 2023).

The target of one data set is T1, aromatase (CYP19A1) (Homo sapiens, UniProt P11511).
T1 construct: purchased Corning (Corning, NY)
T1 sequence (P11511 1-503): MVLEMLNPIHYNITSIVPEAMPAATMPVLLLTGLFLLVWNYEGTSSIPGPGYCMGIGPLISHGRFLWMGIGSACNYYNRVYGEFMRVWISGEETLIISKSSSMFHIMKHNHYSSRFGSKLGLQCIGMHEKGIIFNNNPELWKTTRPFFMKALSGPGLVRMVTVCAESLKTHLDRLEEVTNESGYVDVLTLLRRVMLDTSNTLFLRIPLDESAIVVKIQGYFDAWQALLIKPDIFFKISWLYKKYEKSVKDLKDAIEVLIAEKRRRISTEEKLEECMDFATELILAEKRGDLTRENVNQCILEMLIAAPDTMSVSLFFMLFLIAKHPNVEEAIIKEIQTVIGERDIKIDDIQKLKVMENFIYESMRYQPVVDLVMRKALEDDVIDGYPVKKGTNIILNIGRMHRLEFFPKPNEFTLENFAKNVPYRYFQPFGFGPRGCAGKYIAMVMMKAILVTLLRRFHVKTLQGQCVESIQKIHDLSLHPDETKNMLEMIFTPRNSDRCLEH
In words: Aromatase inhibition assay (Corning Supersomes CYP19/MFC kit, fluorescent). In kind it is biochemical. The following applies: 37 °C, mean ± SD of at least three measurements. On the procedure:
Formation of a fluorescent metabolite was measured at Ex/Em of 409 nm/530 nm. Data represents mean ± SD of at least three independent measurements.
To evaluate the aromatase inhibitory potential of hops, licorice species, and their bioactive compounds, the Corning® Supersomes™ P450 Inhibition Kit CYP19/MFC high throughput inhibition assay was used. The protocol of the kit, which is based on the effects of the tested agents on the conversion of the fluorescent substrate, 7-methoxy-4-trifluoromethyl coumarin (MFC) to 7-hydroxy-4-trifluoromethyl coumarin (HFC) by aromatase, was followed. […] Then the enzyme/substrate mixture containing the aromatase enzyme and MFC were added to the pre-incubated mixture and were incubated at 37 °C for 30 min before stopping the enzymatic reaction with the stop solution. The fluorescent signal was evaluated at the Excitation/Emission of 409 nm/530 nm and was corrected for the potential innate fluorescence of the tested extracts and compounds.

Another data set concerns ERα. The following applies: read-out: ERα binding (IC50), cited from earlier work.
Another data set concerns ERβ. The following applies: read-out: ERβ binding (IC50), cited from earlier work.
Data set [1] deals with uterus. Further details: method as in PMID 18619951, PMID 34848279. The following applies: cited from earlier work.
Another data set concerns CYP19A1 expression. In words: qPCR of CYP19A1 mRNA in high-risk postmenopausal breast tissue microstructures. In kind it is cell-based, human. The following applies: 24 h, vs vehicle; for Suppression of baseline CYP19A1 expression: 5 µM, six subjects' tissues. Background: Quantitative PCR measures a nucleic acid by following its amplification.
Data set [2] relates to uterus. In words: In vivo uterotrophic study in immature female Sprague-Dawley rats. The following applies: 3 days. Further details: species or system rat. On the procedure: Animals were sacrificed on day 4 and their uterine weights were measured.
We used the OECD guidelines and animal model for testing uterotrophic or estrogenic activity of compounds[49]. […] The animals were treated for 3 days every 24 h. Animal weight and food intake were evaluated daily. Animals were sacrificed by CO2 asphyxiation. Uterus was collected, trimmed of fat and connective tissue, and weighted.

The subject of another data set is MCF-7 cells. Briefly: MCF-7 cell proliferation by IncuCyte live cell imaging. In kind it is cell-based, human. How it is done:
Cell proliferation was monitored using live cell imaging by IncuCyte. Data represents the mean of at least two independent observations ± SEM.
MCF-7 cells were seeded at density of 2.5 × 10^3 cells/well in RPMI media supplemented with 10% FBS. Cells were placed in IncuCyte for live cell imaging every 6 h, and were monitored. […] Treatments were repeated every 48 h until day 6 and cells were monitored until day 12. Data was analyzed using Zoom software to quantify the images and were plotted as mean ± SD of at least two independent measurements.

Where [3] appears, read: ref J Agric Food Chem. 2020, 68: 10651–10663.

Method for CYP19A1 expression: Subsequently, RNA extraction and qPCR of CYP19A1 was performed. The expression of CYP19A1 mRNA was calculated relative to the housekeeping gene RPLP0 and normalized to DMSO control.
The unaffected contralateral breast tissues of postmenopausal women who underwent bilateral mastectomy due to incident unilateral breast cancer were obtained while fresh and diced to approximately 5 mm pieces before digesting at 37 °C with 2% collagenase I in F12-K nutrient mix (Kaighn’s) medium, overnight. After the completion of digestion, the tissue was centrifuged at 250×g for 5 min and the supernatant was discarded. The pellet was washed with phosphate buffered saline and was mixed and cultured in MammoCult media supplemented with 0.2% heparin and 0.5% hydrocortisone. After 24 h incubation at 37 °C the treatments were mixed with fresh MammoCult media and added to the microstructures.
After 24 h incubation with the treatments, the microstructure pellet of the first 6 donors’ samples were prepared separately (not pooled) and washed with HBSS. Trizol was added to each pellet and the protocol of Direct-Zol RNA prep kit was used to extract RNA. The protocol included a step of DNAse I treatment for removing DNA contamination of the RNA preparations. RNA was eluted in nuclease free water and the concentration was measured using Nano Drop 2000 spectrophotometry (Thermo Fisher). The Integrated DNA Technologies (IDT) protocol, pre-made aromatase (CYP19A1) gene primer, and the pre-made housekeeping RPLP0 gene primer was used to perform qPCR using QuantStudio 12 K Flex Real Time PCR system.

Usually IC50 stands for the concentration needed to halve the response being measured. At aromatase (CYP19A1), `CC(C)=CCc1c(O)cc2c(c1O)C(=O)C[C@@H](c1ccc(O)cc1)O2` [6-PN, 6-prenylnaringenin] returned an IC50 of 7.4 ± 0.3 µM.

As to `CC(C)=CCc1c(O)cc(O)c2c(=O)cc(-c3ccc(O)cc3)oc12` [8-PA, 8-prenylapigenin], the IC50 with ERα (setting [3]) was 100 ± 50 nM; in the data set on ERβ (setting [3]), 30 ± 10 nM; on aromatase (CYP19A1), 0.59 ± 0.08 µM.

Take `CC(C)=CCc1c(O)cc(O)c2c1O[C@H](c1ccc(O)cc1)CC2=O` [8-PN, 8-prenylnaringenin]: the Uterine growth entry in the data set on uterus [1] is on record as “enhance uterine growth”. Besides, the half-maximal inhibitory concentration (IC50) in the data set with ERα (setting [3]) was […]; in the data set on ERβ (setting [3]), […]; against aromatase (CYP19A1) it was 0.05 ± 0.004 µM. In the data set with CYP19A1 expression (10 µM, 5 subjects' tissues), the “Suppression of CYP19A1 expression” value is 40%.

On to `C[C@]12CC[C@@H]3c4ccc(OC(=O)c5ccccc5)cc4CC[C@H]3[C@@H]1CC[C@@H]2O` [Estradiol benzoate, 17β-estradiol benzoate, reference compound], for which the “Uterine weight vs vehicle” value in the data set on uterus [2] (1.6 µg/kg.day s.c.) is “significantly enhanced uterine weight (nearly doubled)”.

`C=CC(C)(C)c1cc(/C=C/C(=O)c2ccc(O)cc2)c(OC)cc1O` [LicA, licochalcone A]: the “Suppression of baseline CYP19A1 expression” value in the data set with CYP19A1 expression is roughly 40%. The half-maximal inhibitory concentration (IC50) at aromatase (CYP19A1) was found to be 3.2 ± 0.1 µM.

For the compound `O=C(/C=C/c1ccc(O)cc1)c1ccc(O)cc1O` [LigC, isoliquiritigenin], the IC50 was 16000 ± 1000 nM with ERα (ref PLoS One, 2013, 8: e67947); 7800 ± 100 nM with ERβ (ref PLoS One, 2013, 8: e67947); 4 ± 0.3 µM against aromatase (CYP19A1).

`O=C1C[C@@H](c2ccc(O)cc2)Oc2cc(O)ccc21` [LigF, liquiritigenin]: the “Cell proliferation after treatment halted” value in the data set with MCF-7 cells (20 µM, treatment halted after third dose (six days)) is given as “reached full confluency on day 10”; in the data set on MCF-7 cells (40 µM, last dose on day 6) it was “maintained a significantly reduced proliferation rate until the end of the study (day 11)”. Also, in the data set on MCF-7 cells (MCF-7 cells exposed to LigF), the Cytotoxicity entry is recorded as “did not detect cytotoxicity”. Also, the Cell proliferation result in the data set on MCF-7 cells (repeated doses of 20 µM every 48 h) and with MCF-7 cells (repeated doses of 40 µM every 48 h) was “profound suppression of proliferation” in each case. In the data set on MCF-7 cells (single dose), the “Cell proliferation after a single dose” value is recorded as “clear reduction in cell proliferation for up to 48 h”. Moreover, the IC50 was greater than 200000 nM with ERα (ref PLoS One, 2013, 8: e67947) and 0.43 ± 0.02 µM on aromatase (CYP19A1). Besides, the “Suppression of baseline CYP19A1 expression” value in the data set with CYP19A1 expression came out at 25%. Besides, the “Uterine growth vs vehicle” value in the data set on uterus [2] (50 mg/kg.day s.c.) is given as “did not enhance uterine growth, significantly”; in the data set on uterus [2] (150 mg/kg.day s.c.) it was “did not enhance uterine growth, significantly”. Moreover, in the data set with uterus [2] (150 mg/kg.day s.c. co-administered with estradiol benzoate 1.6 µg/kg.day), the E2-induced uterine growth entry is “suppressed E2-induced uterine growth, significantly”.

Consider `COc1cc(O)c(CC=C(C)C)c(O)c1C(=O)/C=C/c1ccc(O)cc1` [XH, xanthohumol], for which 4.3 ± 0.6 µM corresponded to half-maximal inhibition against aromatase (CYP19A1) (IC50).
